Assay results taken from ChEMBL document CHEMBL4043292, “Discovery and Optimization of Phosphopantetheine Adenylyltransferase Inhibitors with Gram-Negative Antibacterial Activity” (J Med Chem, 2018).
In brackets after ≈: the same amount, converted by molar mass.

Legend:
Escherichia coli [1] = experiment: microbe, parasite or virus in culture; conditions: BW25113, 20 h
Description: Antibacterial activity against Escherichia coli BW25113 after 20 hrs by broth microdilution method

Escherichia coli [2] = experiment: microbe, parasite or virus in culture; conditions: JW5503-1, 20 h
Description: Antibacterial activity against tolC deficient Escherichia coli JW5503-1 after 20 hrs by broth microdilution method

physchem [3] = conditions: buffer, pH 7.4
Description: Lipophilicity, log D of the compound at pH 7.4

Escherichia coli [4] = experiment: microbe, parasite or virus in culture; conditions: RFM795, 20 h
Description: Antibacterial activity Escherichia coli RFM795 harboring frame deletion of 23 amino acids in lptD gene after 20 hrs by broth microdilution method

Pseudomonas aeruginosa [5] = experiment: microbe, parasite or virus in culture; conditions: K1119, 20 h
Description: Antibacterial activity against mexAB deficient Pseudomonas aeruginosa K1119 after 20 hrs by broth microdilution method

[6] = biological target: T1, Bifunctional coenzyme A synthase (Homo sapiens) (UniProt Q13057)
T1 sequence (whole entry): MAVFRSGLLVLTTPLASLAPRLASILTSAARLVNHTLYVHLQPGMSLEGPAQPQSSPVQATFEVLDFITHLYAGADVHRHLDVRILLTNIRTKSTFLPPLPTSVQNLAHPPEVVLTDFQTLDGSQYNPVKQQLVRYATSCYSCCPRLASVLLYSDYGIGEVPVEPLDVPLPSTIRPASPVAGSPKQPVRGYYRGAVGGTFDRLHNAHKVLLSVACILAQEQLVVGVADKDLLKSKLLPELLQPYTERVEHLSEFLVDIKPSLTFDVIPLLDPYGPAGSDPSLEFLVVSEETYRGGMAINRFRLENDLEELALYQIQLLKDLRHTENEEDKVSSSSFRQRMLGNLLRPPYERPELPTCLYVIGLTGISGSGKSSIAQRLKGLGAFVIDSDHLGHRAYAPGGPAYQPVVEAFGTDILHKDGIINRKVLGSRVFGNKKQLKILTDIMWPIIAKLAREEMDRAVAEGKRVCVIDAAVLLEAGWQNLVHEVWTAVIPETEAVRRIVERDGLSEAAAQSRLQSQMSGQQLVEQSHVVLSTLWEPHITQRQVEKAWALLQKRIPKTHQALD
Description: Inhibition of human coaSY expressed in tolC deficient Escherichia coli JWK0002 assessed as bacterial growth inhibition after 20 hrs by broth microdilution method

Pseudomonas aeruginosa [7] = experiment: microbe, parasite or virus in culture; conditions: ATCC 35151, 20 h
Description: Antibacterial activity against Pseudomonas aeruginosa ATCC 35151 after 20 hrs by broth microdilution method

in vitro = conditions: human, not told
Description: Efflux ratio in human microsomes

Pseudomonas aeruginosa [8] = experiment: microbe, parasite or virus in culture; conditions: PAO1, 20 h
Description: Antibacterial activity against Pseudomonas aeruginosa PAO1 after 20 hrs by broth microdilution method

Escherichia coli [9] = experiment: microbe, parasite or virus in culture; conditions: JW0451-2, 20 h
Description: Antibacterial activity against acrB deficient Escherichia coli JW0451-2 after 20 hrs by broth microdilution method

[10] = Inhibition of PPAT in Escherichia coli BW25113 assessed as reduction in level of CoA-SH metabolite by mass spectrometric method
physchem [11] = conditions: PBS
Description: Solubility of the compound in PBS

[12] = Inhibition of PPAT in tolC deficient Escherichia coli JW5503-1 assessed as reduction in level of CoA-SH metabolite by mass spectrometric method
Escherichia coli [13] = experiment: Ratio of IC50 for PPAT in Escherichia coli BW25113 assessed as reduction in level of CoA-SH metabolite to IC50 for PPAT in tolC deficient Escherichia coli JW5503-1 assessed as reduction in level of CoA-SH metabolite

SMILES	MIC (Escherichia coli [1]) [µg/mL]	MIC (Escherichia coli [2]) [µg/mL]	logD (physchem [3])	also measured
Cc1cc(NC[C@@H](N)c2nccn2C)n2nc(N[C@H](CC#N)c3cccc(Cl)c3)nc2n1	> 128	4 (≈ 8.87 µM)		
CO/N=C/C1(Cc2cccc([C@@H](CC#N)Nc3nc4nc(C)ccc4[nH]3)c2)CCN(C(=O)OC)CC1	> 128	0.25 (≈ 0.511 µM)	3.5	
Cc1cc(N2CC(N(C)C)C2)n2nc(N[C@H](C)c3cccc(Cl)c3)nc2n1	> 128	> 128		
Cc1cc(NCCc2c(C)n[nH]c2C)n2nc(N[C@H](C)c3cccc(Cl)c3)nc2n1	> 128	2 (≈ 4.71 µM)	2.9	
Cc1cc(N[C@H]2C[C@@H]2c2ccccc2)n2nc(N[C@H](C)c3cccc(Cl)c3)nc2n1	> 128	2 (≈ 4.77 µM)	4.9	
Cc1cc(NC[C@H](N)c2ccccc2)n2nc(N[C@H](CC#N)c3cccc(Cl)c3)nc2n1	> 128	8 (≈ 17.9 µM)	3.2	
Cc1cc(NC[C@@H](N)c2ccsc2)n2nc(N[C@H](CC#N)c3cccc(Cl)c3)nc2n1	64 (≈ 141 µM)	1 (≈ 2.21 µM)	3	
Cc1cc(=O)n2nc(N[C@H](C)c3cccc(Cl)c3)nc2[nH]1		> 128		
Cc1cc(NC[C@@H](N)c2ccccc2)n2nc(N[C@H](CC#N)c3cccc(Cl)c3)nc2n1	32 (≈ 71.6 µM)	0.25 (≈ 0.559 µM)	3.4	
Cc1cc(NC[C@@H](N)c2cccc(F)c2)n2nc(N[C@H](CC#N)c3cccc(Cl)c3)nc2n1	64 (≈ 138 µM)	0.25 (≈ 0.538 µM)	3.7	
COC(=O)N1CCC(Oc2cccc([C@@H](CC#N)Nc3nc4nc(C)cc(N5CCN(C)CC5)c4[nH]3)c2)CC1	> 128	4 (≈ 7.51 µM)		MIC (Escherichia coli [4]): 64 µg/mL (≈ 120 µM); MIC (Pseudomonas aeruginosa [5]): > 128 µg/mL; MIC [6]: > 128 µg/mL; MIC (Pseudomonas aeruginosa [7]): > 128 µg/mL; efflux ratio (in vitro): 0.56; MIC (Pseudomonas aeruginosa [8]): > 128 µg/mL; MIC (Escherichia coli [9]): 64 µg/mL (≈ 120 µM)
CC(=O)N1CCc2cc(Nc3cc(C)nc4nc(N[C@H](CC#N)c5cccc(Cl)c5)nn34)ccc21	> 128	0.06 (≈ 0.123 µM)	3.9	IC50 [10]: 2400 nM; solubility (physchem [11]): < 0.6 µg/mL; IC50 [12]: < 6 nM
Cc1cc(Nc2ccc3nc(C)sc3c2)n2nc(N[C@H](C)c3cccc(Cl)c3)nc2n1	> 128	1 (≈ 2.22 µM)	4.4	
Cc1cc(N2CCN(C)CC2)n2nc(N[C@H](CC#N)c3cccc(Cl)c3)nc2n1	> 128	4 (≈ 9.73 µM)	2.4	IC50 [10]: 41000 nM; solubility (physchem [11]): > 729 µg/mL; IC50 [12]: 97 nM
COC(=O)N1CCC(CCC#N)(Cc2cccc([C@@H](CC#N)Nc3nc4nc(C)ccc4[nH]3)c2)CC1	> 128	0.5 (≈ 1.03 µM)		
COC(=O)N1CC[C@@H](Cc2cccc([C@@H](CC#N)Nc3nc4nc(C)ccc4[nH]3)c2)C1	> 128	1 (≈ 2.39 µM)	3.1	
COC(=O)N1CCC(CCCO)(Cc2cccc([C@@H](CC#N)Nc3nc4nc(C)ccc4[nH]3)c2)CC1	> 128	0.25 (≈ 0.51 µM)		
Cc1cc(Nc2ccc(C)c(Cl)c2)n2nc(Cc3ccccc3)nc2n1			> 5	
Cc1cc(NC[C@@H](N)c2ccccn2)n2nc(N[C@H](CC#N)c3cccc(Cl)c3)nc2n1	> 128	2 (≈ 4.46 µM)	1.9	
COC(=O)N1CCC(Oc2cccc([C@@H](CC#N)Nc3nc4[nH]c(C)cc(=O)n4n3)c2)CC1	> 128	8 (≈ 17.7 µM)	0.64	IC50 [10]: > 200000 nM; IC50 [12]: 450 nM
COC(=O)N1CCC(Sc2cccc([C@@H](CC#N)Nc3nc4nc(C)ccc4[nH]3)c2)CC1	64 (≈ 142 µM)	0.06 (≈ 0.133 µM)	3.7	
COC(=O)c1ccc(Oc2cccc([C@@H](CC#N)Nc3nc4[nH]c(C)cc(=O)n4n3)c2)cc1		2 (≈ 4.5 µM)	2	
COC(=O)N1CCC(Cc2cccc([C@@H](CC#N)Nc3nc4nc(C)ccc4[nH]3)c2)(C(=O)O)CC1	> 128	16 (≈ 33.6 µM)	0.02	
COC(=O)N1CCN(S(=O)(=O)c2cccc([C@@H](CC#N)Nc3nc4nc(C)ccc4[nH]3)c2)CC1	> 128	32 (≈ 66.2 µM)	2	
COc1ccc(Oc2cccc([C@@H](C)Nc3nc4[nH]c(C)cc(=O)n4n3)c2)cc1		64 (≈ 164 µM)		

SMILES	MIC (Escherichia coli [1]) [µg/mL]	MIC (Escherichia coli [2]) [µg/mL]	logD (physchem [3])	also measured
COC(=O)N1CCC(O)(Cc2cccc([C@@H](CC#N)Nc3nc4nc(C)ccc4[nH]3)c2)CC1	> 128	2 (≈ 4.46 µM)	2.1	
Cc1cc(NC[C@@H](O)c2ccccc2)n2nc(N[C@H](CC#N)c3cccc(Cl)c3)nc2n1	> 128	0.25 (≈ 0.558 µM)	3.6	
Cc1cc(NC[C@@H](N)c2cccs2)n2nc(N[C@H](CC#N)c3cccc(Cl)c3)nc2n1	64 (≈ 141 µM)	0.25 (≈ 0.552 µM)	3.3	
Cc1cc(NC[C@@H](N)c2ccccc2F)n2nc(N[C@H](CC#N)c3cccc(Cl)c3)nc2n1	64 (≈ 138 µM)	0.125 (≈ 0.269 µM)	3.2	
Cc1cc(NC[C@@H](N)c2ccncc2)n2nc(N[C@H](CC#N)c3cccc(Cl)c3)nc2n1	> 128	4 (≈ 8.93 µM)	2.2	
Cc1cc(N2CCN(C)CC2)c2[nH]c(N[C@H](CC#N)c3cccc(Cl)c3)nc2n1	64 (≈ 156 µM)	2 (≈ 4.88 µM)		MIC (Escherichia coli [4]): 8 µg/mL (≈ 19.5 µM); MIC (Pseudomonas aeruginosa [5]): > 128 µg/mL; MIC [6]: 128 µg/mL (≈ 312 µM); MIC (Pseudomonas aeruginosa [7]): 128 µg/mL (≈ 312 µM); MIC (Pseudomonas aeruginosa [8]): > 128 µg/mL; MIC (Escherichia coli [9]): 8 µg/mL (≈ 19.5 µM)
COC(=O)N1CCN(Cc2cccc([C@@H](CC#N)Nc3nc4nc(C)ccc4[nH]3)c2)C(=O)C1			1.4	
Cc1cc(NC[C@@H](N)c2cccnc2)n2nc(N[C@H](CC#N)c3cccc(Cl)c3)nc2n1	> 128	4 (≈ 8.93 µM)	2.3	
Cc1ccc2[nH]c(N[C@H](CC#N)c3cccc(Cl)c3)nc2n1	> 128	4 (≈ 12.8 µM)		IC50 [10]: 4760 nM; Ratio IC50 (Escherichia coli [13]): 13; IC50 [12]: 370 nM
Cc1cc(NC[C@@H](N)c2c(C)noc2C)n2nc(N[C@H](CC#N)c3cccc(Cl)c3)nc2n1	> 128	1 (≈ 2.15 µM)		
COC(=O)N1CCC(CCC(=O)O)(Cc2cccc([C@@H](CC#N)Nc3nc4nc(C)ccc4[nH]3)c2)CC1	> 128	0.5 (≈ 0.991 µM)		
Cc1cc(NCCc2c(C)n[nH]c2C)n2nc(N[C@H](CC#N)c3cccc(Cl)c3)nc2n1	> 128	0.5 (≈ 1.11 µM)	3.8	IC50 [10]: 74000 nM; solubility (physchem [11]): 23.8 µg/mL (≈ 52.9 µM); IC50 [12]: 12 nM
COC(=O)N1CCC(S(=O)(=O)c2cccc([C@@H](CC#N)Nc3nc4nc(C)ccc4[nH]3)c2)CC1	> 128	2 (≈ 4.14 µM)	1.9	
COC(=O)N1CCC(CNCCO)(Cc2cccc([C@@H](CC#N)Nc3nc4nc(C)ccc4[nH]3)c2)CC1	> 128	32 (≈ 63.3 µM)		
Cc1cc(N2CCN(C)CC2)n2nc(N[C@H](C)c3cccc(Cl)c3)nc2n1	> 128	32 (≈ 82.9 µM)	3.3	
COC(=O)N1CC[C@H](Oc2cccc([C@@H](CC#N)Nc3nc4nc(C)ccc4[nH]3)c2)C1	> 128	4 (≈ 9.51 µM)	2.7	
COC(=O)N1CC[C@H](Cc2cccc([C@@H](CC#N)Nc3nc4nc(C)ccc4[nH]3)c2)C1	64 (≈ 153 µM)	0.125 (≈ 0.299 µM)		
COC(=O)N1CC[C@@H](Oc2cccc([C@@H](CC#N)Nc3nc4nc(C)ccc4[nH]3)c2)C1	> 128	> 128	2.8	
COC(=O)N1CCC(CO)(Cc2cccc([C@@H](CC#N)Nc3nc4nc(C)ccc4[nH]3)c2)CC1	> 128	1 (≈ 2.16 µM)		
Cc1cc(NCCc2ccccc2)n2nc(N[C@H](C)c3cccc(Cl)c3)nc2n1	> 128	4 (≈ 9.83 µM)	> 4.8	
Cc1cc(NC[C@@H](N)C2CC2)n2nc(N[C@H](CC#N)c3cccc(Cl)c3)nc2n1	> 128	8 (≈ 19.5 µM)	1.3	
Cc1cc(=O)n2nc(N[C@H](CC#N)c3cccc(Cl)c3)nc2[nH]1	> 128	16 (≈ 48.7 µM)		IC50 [10]: > 200000 nM; IC50 [12]: 590 nM
Cc1cc(N2CC(N(C)C)C2)n2nc(N[C@H](CC#N)c3cccc(Cl)c3)nc2n1	> 128	4 (≈ 9.73 µM)	2.8	
CC(=O)N1CCc2cc(Nc3cc(C)nc4nc(N[C@H](C)c5cccc(Cl)c5)nn34)ccc21	> 128	0.125 (≈ 0.271 µM)	4.6	
Cc1cc(NC[C@@H](N)c2ccc(F)cc2)n2nc(N[C@H](CC#N)c3cccc(Cl)c3)nc2n1	64 (≈ 138 µM)	0.5 (≈ 1.08 µM)		
